Experimental data reported in publication PMC4730117, “In vitro Biochemical Characterization of All Barley Endosperm Starch Synthases” (Frontiers in Plant Science, 2016).

Assays:
HvSSI = molecular target: T1, HvSSI (Hordeum vulgare, UniProt Q9M5A3); assay: biochemical; set-up: Thermofluor (differential scanning fluorimetry, Sypro orange), shift of melting temperature of HvSSI versus no additive; details: 0.1 mg/mL HvSSI, 1X Sypro orange, 20 mM Tris pH 8.0, 100 mM NaCl, read-out: Δ Tm to reference; for ΔTm at 10000 µM: 10 mM
T1 construct: gene SSI; without predicted chloroplast transit peptide, N-terminal His-tag, codon-optimised, E. coli
T1 sequence (Q9M5A3 32-643): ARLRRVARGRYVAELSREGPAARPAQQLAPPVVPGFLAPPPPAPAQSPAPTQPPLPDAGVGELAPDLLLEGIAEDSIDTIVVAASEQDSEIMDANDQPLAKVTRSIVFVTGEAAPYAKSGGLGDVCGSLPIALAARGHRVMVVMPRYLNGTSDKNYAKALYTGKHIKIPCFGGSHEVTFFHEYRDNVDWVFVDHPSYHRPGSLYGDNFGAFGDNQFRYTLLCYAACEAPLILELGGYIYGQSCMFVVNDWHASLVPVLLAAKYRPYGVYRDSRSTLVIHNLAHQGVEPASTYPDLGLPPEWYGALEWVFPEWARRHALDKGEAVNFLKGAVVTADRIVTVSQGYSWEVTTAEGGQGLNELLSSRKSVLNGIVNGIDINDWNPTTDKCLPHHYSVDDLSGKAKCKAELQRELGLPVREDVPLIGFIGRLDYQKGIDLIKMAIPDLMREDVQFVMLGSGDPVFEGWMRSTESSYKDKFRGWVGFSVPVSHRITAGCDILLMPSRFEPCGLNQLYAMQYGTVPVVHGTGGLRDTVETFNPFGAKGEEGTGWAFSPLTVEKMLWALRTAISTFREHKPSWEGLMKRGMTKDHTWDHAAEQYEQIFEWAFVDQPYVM
Procedure: HvSSI unfolding temperatures were measured with a variant of the Thermofluor method (Niesen et al., [2007]). Details are given in S.I. The effect of additives on SSI stability was studied in some detail with the thermofluor assay; details for many additives are given in S.I. The strongest effects were from sugars, which increased protein stability by 1°C for every 50 mM hexose present as oligosaccharides, with glucose and other monosaccharides having only half the effect.

[1] = substrate: Nc1ncnc2c1ncn2[C@@H]1O[C@H](COP(=O)(O)OP(=O)(O)O[C@H]2O[C@H](CO)[C@@H](O)[C@H](O)[C@H]2O)[C@@H](O)[C@H]1O; assay: coupled spectrophotometric assay (pyruvate kinase / lactate dehydrogenase, NADH); format: biochemical, Hordeum vulgare; details: 100 mM maltose (DP = 2) acceptor, 50 mM Bicine pH 8.5, 25 mM KOAc, 2 mM MgCl2, 37°C
Source text: coupled spectrophotometric assay (pyruvate kinase / lactate dehydrogenase, NADH) on HvGBSSI

[2] = substrate: Nc1ncnc2c1ncn2[C@@H]1O[C@H](COP(=O)(O)OP(=O)(O)O[C@H]2O[C@H](CO)[C@@H](O)[C@H](O)[C@H]2O)[C@@H](O)[C@H]1O; assay: as above; format: biochemical, Hordeum vulgare; details: 10 mM maltotriose acceptor, 50 mM Bicine pH 8.5, 25 mM KOAc, 2 mM MgCl2, 37°C
Source text: coupled spectrophotometric assay (pyruvate kinase / lactate dehydrogenase, NADH) on HvSSIIIb

[3] = substrate: Nc1ncnc2c1ncn2[C@@H]1O[C@H](COP(=O)(O)OP(=O)(O)O[C@H]2O[C@H](CO)[C@@H](O)[C@H](O)[C@H]2O)[C@@H](O)[C@H]1O; assay: as above; format: biochemical, Hordeum vulgare; details: 10 mM maltotriose acceptor, 50 mM Bicine pH 8.5, 25 mM KOAc, 2 mM MgCl2, 37°C; remark: listed apart in the source
Source text: coupled spectrophotometric assay (pyruvate kinase / lactate dehydrogenase, NADH) on […]

[4] = substrate: Nc1ncnc2c1ncn2[C@@H]1O[C@H](COP(=O)(O)OP(=O)(O)O[C@H]2O[C@H](CO)[C@@H](O)[C@H](O)[C@H]2O)[C@@H](O)[C@H]1O; assay: as above; format: biochemical, Hordeum vulgare; details: 10 mM maltotriose acceptor, 50 mM Bicine pH 8.5, 25 mM KOAc, 2 mM MgCl2, 37°C; remark: listed apart in the source
Source text: coupled spectrophotometric assay (pyruvate kinase / lactate dehydrogenase, NADH) on HvSSI

OC[C@H]1O[C@H](O[C@H]2[C@H](O)[C@@H](O)[C@@H](O[C@H]3[C@H](O)[C@@H](O)[C@@H](O[C@H]4[C@H](O)[C@@H](O)[C@@H](O[C@H]5[C@H](O)[C@@H](O)C(O)O[C@@H]5CO)O[C@@H]4CO)O[C@@H]3CO)O[C@@H]2CO)[C@H](O)[C@@H](O)[C@@H]1O (stereo partly shown) [maltopentaose]
ΔTm at 10000 µM (HvSSI): 1.3 °C

C[C@H]1O[C@H](O[C@H]2[C@H](O)[C@@H](O)[C@@H](O[C@H]3[C@H](O)[C@@H](O)C(O)O[C@@H]3CO)O[C@@H]2CO)[C@H](O)[C@@H](O)[C@@H]1N[C@H]1C=C(CO)[C@@H](O)[C@H](O)[C@H]1O (stereo partly shown) [acarbose]
ΔTm at 10000 µM (HvSSI): 0.4 °C

OCC1OC(OC2C(CO)OC(OC3C(CO)OC(OC4C(CO)OC(OC5C(CO)OC(OC6C(CO)OC(OC7C(CO)OC(OC8C(CO)OC(O)C(O)C8O)C(O)C7O)C(O)C6O)C(O)C5O)C(O)C4O)C(O)C3O)C(O)C2O)C(O)C(O)C1O (stereo not shown) [maltooctaose]
ΔTm at 10000 µM (HvSSI): 2 °C

OC[C@H]1OC(O)[C@H](O)[C@@H](O)[C@@H]1O (stereo partly shown) [glucose]
ΔTm at 100000 µM (HvSSI; 100 mM): 1 °C

OC[C@H]1O[C@H](O[C@H]2[C@H](O)[C@@H](O)C(O)O[C@@H]2CO)[C@H](O)[C@@H](O)[C@@H]1O (mixture of isomers) [maltose]
ΔTm at 10000 µM (HvSSI): 0.3 °C

B1: HvGBSSI (Hordeum vulgare) (protein)
chain: ATGSGMNLVFVGAEMAPWSKTGGLGDVLGGLPPAMAANGHRVMVVSPRYDQYKDAWDTSVISEIKVADEYERVRFFHCYKRGVDRVFIDHPWFLEKVRGKTKEKIYGPDAGTDYEDNQQRFSLLCQAALEAPRILNLNNNPYFSGPYGEDVVFVCNDWHTGLLACYLKSNYQSNGIYRTAKVAFCIHNISYQGRFSFDDFAQLNLPDRFKSSFDFIDGYDKPVEGRKINWMKAGILQADKVLTVSPYYAEELISGEARGCELDNIMRLTGITGIVNGMDVSEWDPTKDKFLAVNYDITTALEAKALNKEALQAEVGLPVDRKVPLVAFIGRLEEQKGPDVMIAAIPEILKEEDVQIILLGTGKKKFEKLLKSMEEKFPGKVRAVVRFNAPLAHQMMAGADLLAVTSRFEPCGLIQLQGMRYGTPCVCASTGGLVDTIVEGKTGFHMGRLSVDCNVVEPADVKKVATTLKRAVKVVGTPAYQEMVKNCMIQDLSWKGPAKNWEDVLLELGVEGSEPGIVGEEIAPLAMENVAAP
notes: without predicted chloroplast transit peptide, N-terminal His-tag, codon-optimised, E. coli
Km [1]: 90 ± 20 µM

B2: HvSSIIIb (Hordeum vulgare subsp. vulgare) (protein)
chain: SSDYPKRNPRRSSAPKPKGTASRGYAPRPSAESWTSTKKIEHGSADEDGDLGRSNGTLSGDATEQASTAEEESEVEFAGNVSSSAGLEGVAETEKEADQNQLPALSSTSMDVESVNEATEQTIIGDESSVVDFSGNVSGSVALEVVDESETEEEADQKQSSSLASTSMDSESIDRELEGYRARINALVGASTQEQDRSIIGVHDQDKSVISPNEQDISAVDVPEQGLSGVGVTREDPTKQTTSKQEITEAAVEEISSKNFVARKHSISGDGVEASKNANQQPLVDGDELKITEDEEQHEPEMQEYVRKDVDLQALKRRLEELADGNYSIGNKCFVFPELVKADSVIDLYLNRSMSALASEPDILIKGAFNGWRWNHFTERLHKSELSGDWWCCKLYIPKQAYRLDFVFFNGDTVYENNSYNDFVLHIESDIDEHSFEDFLLEEKQRELERLAAEEAERERQAEEERRKEEERAAMEADRAQAKAEVEMTRNNLQHVLGLASRYANNLWYIEPNTYKGGDRVRLYYNRSSGPLKHKNEIWLHGSYNNWTDGPSIVERLVKSDEQDGDWWYANVTLPESALVLDWVFADGPPGNARKYDNNGKRDFHAAVSKSISEDLFWVKEEHRIFERLQRERKEKEDAGRRKAEITARMKAEMKEKTMREFLLSQKHIVYTEPLEVRAGMTVDVLYNPSNTVLNGSPEVWFRCSFNRWTHPSGPLPPQKMVNAENGSHLQATVRVPLDAYMMDFVFSESEEGGMYDNRDGMDYHIPVSDSMAKEPPMHIVHIAVEMAPIAKVGGLGDVVTSLSRAIQDLGHKVEVVFPKYDCLNLSNVKDLHCRQSFTWGGTEIKVWFGKVEGISVYFLEPQNGMFWVGCVYGRNDESRFGFFCHSALEFLLQSGSSPDIIHCHDWSSAPVAWLYKQHYVHNGLPNGRVVFTIHNLEFGVHHIGKAMAHCDKATTVSYTYSKEVSGHGSIAPHYFKFHGIRNGIDSDIWDPYNDNFIPVHYTSENVVEGKSSAKRALQEKLGLHQTDSPLVGIISRLTAQKGIHLIKHAIYRTLERNGQVVLLGSAPDHRIQGDFSNLASKLHGEFDGRVKLCLTYDEPLSHLIYAGADFILVPSIFEPCGLTQLTAMRYGSIPIVRKTGGLYDTVFDVDDDKDRAREQGLEPNGFSFEGADSNGVDYALDRAITTWYDARGWFHSLCKRVMEQDWSWNRPALDYMELYHSARKN
notes: as for B1
Km [2]: 440 ± 40 µM | kcat [2]: >740 turnovers·min^-1 (DP = 3)

B3: HvSSIV (Hordeum vulgare subsp. vulgare) (protein)
chain: QQRPQRSTAGADHLNTAANVRSDEAAVSAEKERQRKYSDGDGISNLQLEDLVEMIQNTEKNILLLNQARLQAMERADKILKEKEALQRKISILETRLSETDAQHKLSSEGNFSESPLALEFDVLKEENILLKEDIEFFKSKLIEVAKTEEGIFKLEKERALLDASLRELESRFIAAQADMMKLGPRDAWWEKVEKLEDLLETTANQVERAAVILDNNHDLQDKLDKLVASLQAANISKFSSSLVDLLQQKVKLVEERFQACNREMHSQIKLYEHSIVEFHDTLSKLIEESEKRSLENFTGNMPSELWSKISLLIDGWLLEKKISYNDASLLREMVRKRDSRLREAYLSYRGTENREVMDNFLKMALPGTSSGLHIAHIAAEMAPVAKVGGLADVISGLGKALQKKGHLVEIILPKYDCMQVDQVSNLKVLDVPVQSYFEGNMFDNKIWTGTVEGLPVYFIEPQHPAMFFSRAQYYGEHDDFKRFTYFSRAALELLYQSGKKVDIIHCHDWQTAFVAPLYWDVYANLGFNSARICFTCHNFEYQGTAPARDLAWCGLDVEHLDRPDRMRDNSHGRINAVKGAVVYSNIVTTVSPTYALEVLSQGGRGLQDTLKVHSRKFLGILNGIDTDTWNPSTDRYLKVQYNAKDLQGKAANKAALREQLNLASAYPSQPLVGCITRLVAQKGVHLIRHAIYKTAELGGQFVLLGSSPVPEIQREFEGIADHFQDNNNIRLILKYDDALSHCIYAASDMFIVPSIFEPCGLTQMIAMRYGSVPIVRKTGGLNDSVFDFDDETIPVEVRNGFTFVKADEQGLSSAMERAFNCYTRKPEVWKQLVQKDMTIDFSWDTSASQYEDIYQKAVARARAAA
notes: without predicted chloroplast transit peptide, C-terminal His-tag, codon-optimised, E. coli
Km [3]: 310 ± 20 µM

B4: HvSSI (Hordeum vulgare) (protein)
chain: ARLRRVARGRYVAELSREGPAARPAQQLAPPVVPGFLAPPPPAPAQSPAPTQPPLPDAGVGELAPDLLLEGIAEDSIDTIVVAASEQDSEIMDANDQPLAKVTRSIVFVTGEAAPYAKSGGLGDVCGSLPIALAARGHRVMVVMPRYLNGTSDKNYAKALYTGKHIKIPCFGGSHEVTFFHEYRDNVDWVFVDHPSYHRPGSLYGDNFGAFGDNQFRYTLLCYAACEAPLILELGGYIYGQSCMFVVNDWHASLVPVLLAAKYRPYGVYRDSRSTLVIHNLAHQGVEPASTYPDLGLPPEWYGALEWVFPEWARRHALDKGEAVNFLKGAVVTADRIVTVSQGYSWEVTTAEGGQGLNELLSSRKSVLNGIVNGIDINDWNPTTDKCLPHHYSVDDLSGKAKCKAELQRELGLPVREDVPLIGFIGRLDYQKGIDLIKMAIPDLMREDVQFVMLGSGDPVFEGWMRSTESSYKDKFRGWVGFSVPVSHRITAGCDILLMPSRFEPCGLNQLYAMQYGTVPVVHGTGGLRDTVETFNPFGAKGEEGTGWAFSPLTVEKMLWALRTAISTFREHKPSWEGLMKRGMTKDHTWDHAAEQYEQIFEWAFVDQPYVM
notes: as for B1
Km [4]: 630 ± 20 µM
